Measured values reported in patent publication US20210038587A1, “METHODS AND COMPOSITIONS FOR TREATING NON-ERK MAPK PATHWAY INHIBITOR-RESISTANT CANCERS” (BIOMED VALLEY DISCOVERIES, INC., priority 2013, published 2021).

Tests used:
[1] = tested on: RKO MEK1 (Q56P/+) Clone 1; assay: Single agent proliferation assay (CellTiter-Glo, 96 h); assay type: cell-based; conditions: RKO MEK1 Q56P/+ Cl.1
Experimental: (§1) For assessment of drug sensitivity in cell-line models of acquired resistance, drug sensitivity of dose-escalated A375 cells and isogenic RKO cells was assessed in 96-hour proliferation assays. […] For the A375 assays Alamar blue (ThermoFisher) 10% (v/v) was added and incubated for 4 h, and fluorescent product was then detected using a BMG FLUOstar.
(§2) RKO MEK1 Q56P Isogenic cells were produced by Horizon Discovery (Cambridge, UK; #HD 106-019) using a recombinant AAV-mediated gene targeting strategy. Briefly, rAAV virus was generated following transfection of the appropriate targeting vector and helper vectors in HEK293T cells, purified using an AAV purification kit (Virapur, San Diego, USA) and titrated using qPCR. Parental homozygous RKO cells (homozygous wild type for MEK1) were then infected with rAAV virus and clones that had integrated the selection cassette were identified by G418 selection and expanded. Correctly targeted clones that were heterozygous for knock-in of the MEK1 Q56P point mutation into a single allele were identified by PCR and sequencing.
(§3) Compounds were prepared from DMSO stocks to give the desired final concentrations. The final DMSO concentration was constant at 0.1%. […] CellTiter-Glo® reagent (Promega, Madison, Wis.) was added according to manufacturer's instructions and luminescence detected using the BMG FLUOstar plate reader (BMG Labtech, Ortenberg, Germany).

[2] = tested on: RKO MEK1 (Q56P/+) Clone 2; assay: as above; assay type: cell-based; conditions: RKO MEK1 Q56P/+ Cl.2
Experimental: as §1, §2, §3

MIAPaCa-2 = assay: Reverse Phase Protein Analysis (RPPA); assay type: cell-based; conditions: MIAPaca2; % change from DMSO (matched cell line)
RKO Parental = assay: Single agent proliferation assay (CellTiter-Glo, 96 h); assay type: cell-based
Experimental: as §1, §3

[3] = tested on: A375, MIAPaCa-2, HCT116, Colo205, HT-29, and AN3Ca cells; assay: Reverse Phase Protein Analysis (RPPA), all six cell lines; assay type: cell-based; conditions: 10 μM, 6 hours
Experimental: Control wells were treated with DMSO at 0.1% (v/v) for 6 hours prior to cell lysate generation. Samples were then analyzed using reverse-phase protein microarray technology (Theranostics Health).
Cell lines with common alterations in BRAF and RAS were assayed: BRAF^V600E mutant lines A375, Colo205, and HT29; KRAS^G12C-mutant cell line MIAPACa-2; KRAS^G13D-mutant cell line HCT116; and AN3Ca with atypical HRAS^F82L mutation. Changes in protein levels are shown as a percentage change from dimethyl sulfoxide (DMSO)-treated parental control (FIG. 32A and Table 23).

A375 = assay: Reverse Phase Protein Analysis (RPPA); assay type: cell-based, human; conditions: % change from DMSO (matched cell line)
Method in brief: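 Cells were treated 6 h before lysis, with 0.1% (v/v) DMSO as control. Lysates were analysed by reverse-phase protein microarray. Protein changes are expressed as percentage change from DMSO-treated parental cells.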

For `O=C(Nc1ccc2[nH]nc(-c3ccncc3)c2c1)[C@@H]1CCN(CC(=O)N2CCN(c3ccc(-c4ncccn4)cc3)CC2)C1` [SCH772984], the IC50 [1] was 140 nM, the IC50 [2] was 120 nM and the “Avg (4ebp1 T70)” value (MIAPaCa-2) was 19.27%. For the same molecule, the “Avg (Akt S473)” value (MIAPaCa-2) was 2.84%, the “Avg (Akt)” value (MIAPaCa-2) was 13.47% and the “Avg (Bad S136)” value (MIAPaCa-2) was 8.62%. For the same molecule, the “Avg (Bad S155)” value (MIAPaCa-2) was −1.71%, the “Avg (Bak)” value (MIAPaCa-2) was −10.88% and the “Avg (Bax)” value (MIAPaCa-2) was 15.67%. For the same molecule, the “Avg (Bcl 2)” value (MIAPaCa-2) was 4.96%, the “Avg (Bcl2 S70)” value (MIAPaCa-2) was −4.23% and the “Avg (Bcl 2 T56)” value (MIAPaCa-2) was −1.98%. The “Avg (Bim)” value (MIAPaCa-2) was 2.08%, the “Avg (CREB S133)” value (MIAPaCa-2) was −6.63% and the “Avg (Caspase 3 CL D175)” value (MIAPaCa-2) was 21.05%. For the same molecule, the “Avg (Caspase 7 Cl D198)” value (MIAPaCa-2) was 8.35%, the “Avg (Chk1)” value (MIAPaCa-2) was 12.07% and the “Avg (Chk1 S345)” value (MIAPaCa-2) was 13.39%. The “Avg (Cyclin D1)” value (MIAPaCa-2) was −39.88%, the “Avg (ERK 1 2)” value (MIAPaCa-2) was −23.09% and the “Avg (ERK 1 2 T202 Y204)” value (MIAPaCa-2) was −76.71%. For the same molecule, the “Avg (MAK1 S360)” value (MIAPaCa-2) was 2.74%, the “Avg (Mcl1)” value (MIAPaCa-2) was −1.88% and the “Avg (Raptor S792)” value (MIAPaCa-2) was 4.43%. For the same molecule, the “Avg (Raptor)” value (MIAPaCa-2) was 17.66%, the “Avg (Rictor)” value (MIAPaCa-2) was −15.15% and the “Avg (Stat1)” value (MIAPaCa-2) was 7.17%. The “Avg (Stat3)” value (MIAPaCa-2) was −9.19%, the “Avg (bad S112)” value (MIAPaCa-2) was −33.07% and the “Avg (c Fos)” value (MIAPaCa-2) was −8.99%. The “Avg (c Myc)” value (MIAPaCa-2) was 2.11%, the “Avg (mTOR S2448)” value (MIAPaCa-2) was −11.48% and the “Avg (mTOR S2481)” value (MIAPaCa-2) was 2.43%. For the same molecule, the “Avg (mTOR)” value (MIAPaCa-2) was 1.64%, the “Avg (p70 S6 Kinase)” value (MIAPaCa-2) was −7.51% and the “Avg (p90 RSK S380)” value (MIAPaCa-2) was −38.58%. The “Avg(S6 Ribo Prot S235 236)” value (MIAPaCa-2) was −77.57%, the “Avg(S6 Ribo Prot S240 244)” value (MIAPaCa-2) was −86.61% and the “Avg(Tuberin TSC2 Y1571)” value (MIAPaCa-2) was 8.86%. The “Avg(p70 S6 Kinase S371 S394)” value (MIAPaCa-2) was −40.47%, the “Avg(p70 S6 Kinase T389 T412)” value (MIAPaCa-2) was −50.97% and the IC50 (RKO Parental) was 40 nM. For the same molecule, the “pERK1/2 (ERK1/2-T202, -Y204)” value [3] was “inhibited pERK1/2 in all cell lines”, the “Avg (4ebp1 T70)” value (A375) was −31.75% and the “Avg (Akt S473)” value (A375) was 58.13%. For the same molecule, the “Avg (Akt)” value (A375) was −23.26%, the “Avg (Bad S136)” value (A375) was 5.32% and the “Avg (Bad S155)” value (A375) was −13.86%. For the same molecule, the “Avg (Bak)” value (A375) was −2.37%, the “Avg (Bax)” value (A375) was −17.32% and the “Avg (Bcl 2)” value (A375) was −18.53%. The “Avg (Bcl2 S70)” value (A375) was −12.91%, the “Avg (Bcl 2 T56)” value (A375) was −19.55% and the “Avg (Bim)” value (A375) was 17.52%. The “Avg (CREB S133)” value (A375) was −1.55%, the “Avg (Caspase 3 CL D175)” value (A375) was −9.87% and the “Avg (Caspase 7 Cl D198)” value (A375) was −6%. The “Avg (Chk1)” value (A375) was 2.83%, the “Avg (Chk1 S345)” value (A375) was −10.59% and the “Avg (Cyclin D1)” value (A375) was −84.05%. The “Avg (ERK 1 2)” value (A375) was −21.65%, the “Avg (ERK 1 2 T202 Y204)” value (A375) was −90.63% and the “Avg (MAK1 S360)” value (A375) was 0.97%. For the same molecule, the “Avg (Mcl1)” value (A375) was 2.11%, the “Avg (Raptor S792)” value (A375) was −6.89% and the “Avg (Raptor)” value (A375) was −11.66%. The “Avg (Rictor)” value (A375) was −22.13%, the “Avg (Stat1)” value (A375) was −6.01% and the “Avg (Stat3)” value (A375) was −1.42%. The “Avg (bad S112)” value (A375) was −71.44%, the “Avg (c Fos)” value (A375) was −12.51% and the “Avg (c Myc)” value (A375) was 1.86%. The “Avg (mTOR S2448)” value (A375) was −26.17%, the “Avg (mTOR S2481)” value (A375) was −15.82% and the “Avg (mTOR)” value (A375) was −5.18%. The “Avg (p70 S6 Kinase)” value (A375) was −17.66%, the “Avg (p90 RSK S380)” value (A375) was −72.44% and the “Avg(S6 Ribo Prot S235 236)” value (A375) was −94.71%. For the same molecule, the “Avg(S6 Ribo Prot S240 244)” value (A375) was −91.78%, the “Avg(Tuberin TSC2 Y1571)” value (A375) was −13.7% and the “Avg(p70 S6 Kinase S371 S394)” value (A375) was −28.72%. For the same molecule, the “Avg(p70 S6 Kinase T389 T412)” value (A375) was −42.73%.
